Consider nine molecules from paper PMC10135567, “New Indole-3-Propionic Acid and 5-Methoxy-Indole Carboxylic Acid Derived Hydrazone Hybrids as Multifunctional Neuroprotectors” (Antioxidants, 2023).

The nature of data set [1]: MTT cell viability assay (cytotoxicity), SH-SY5Y. As to conditions: human, SH-SY5Y neuroblastoma cells. As to the method:
Neuroblastoma cell line SH-SY5Y (94030304) was acquired from the European Collection of Cell Cultures (ECACC, Salisbury, UK). Cells were cultured in a medium prepared with RPMI basic media supplemented with 10% heat-inactivated FBS (fetal bovine serum), 2 mM L-glutamine, 1% antibiotics (penicillin/streptomycin), and incubated at 37 °C in a humidified atmosphere containing 5% of CO2. The culture’s medium was replaced at a time interval of 2–3 days.
(§1) Cell viability was assessed via the mitochondrial reductase-dependent reaction of (3-(4,5-dimethylthiazol-2-yl)- 2,5-diphenyl tetrazolium bromide (MTT, cat. no. 475989, Calbiochem, Merck KGaA, Darmstadt, Germany). The SH-SY5Y and bEnd3 cell lines were seeded in 96-well plates at a density of 0.7 × 10^4 (bEnd3) or 2 × 10^4 (SH-SY5Y) cells/well and allowed to adhere for 24 h at 37 °C, 5% CO2. Then, the cells were incubated with the compounds (1–500 μM) for a preset time (24 h). For the solvent, the control cells were treated with DMSO corresponding to the highest concentration of DMSO in the samples (0.5% DMSO) in order to exclude its cytotoxic effect on the cells. For each concentration, a set of at least 6 wells were used. After incubation, the solution from each well was exchanged with fresh culture medium (100 µL/well), containing the MTT reagent (0.5 mg/mL) and incubated for 3 h at 37 °C in a humidified atmosphere and 5% CO2. The obtained formazan crystals were dissolved in 100 µL/well of 5% formic acid in propan-2-ol solution (or DMSO). The absorbance was measured at 570 nm via multiplate reader Tecan Infinite F200 PRO (Tecan Trading AG., Männedorf, Switzerland) or Synergy 2 (BioTek Instruments, Inc., Highland Park, Winooski, VT, USA).
(§2) Both the SH-SY5Y and bEnd3 cells were treated with the test compounds in a concentration range from 1 to 500 µM for 24 h.

The nature of data set [2]: O-phenanthroline Fe(II) chelation test. Type of data set: physicochemical. As to conditions: 200 µM compound, FeCl2. As for the experimental part: The Fe (II)-chelating activity of the tested hydrazones was determined by the O-phenanthroline method. A total of 1 mL sample solutions of 50 mM PB pH 7 contained 0.2 mM O-phenanthroline and 0.05 mM FeCl2 and 0.2 mM hydrazone. In the controls, the tested compounds were omitted. Absorbance was measured at 515 nm via GENESYS 50 UV-VIS spectrophotometer after incubation for 5 min at 37 °C. The data for the sample activity were presented as a percentage of the control measurement. Absorbance spectra of all the samples, the control, and the measurement compositions containing the tested hydrazones and Fe(II) at the concentrations used in the samples were measured.
To explain the results of both systems of Fe(II)-induced oxidative damage, we studied the potency of the tested compounds to chelate-iron (Fe(II)). This was studied by spectrophotometric determination of free iron (Fe(II)) using the ortho-phenanthroline test, as 1,10-phenantroline reacts rapidly with Fe(II) ions in weakly acidic media, generating an orange–red complex (ferroin) with characteristic absorbance spectra (molar absorptivity 1.10.104 (α = 0.20) at ~max 512 nm and a molar ratio 3:1 (R: Fe(II))). The generated complex was stable, and the bound Fe(II) was resistant to oxidation. Lower absorbance of the reaction mixture indicated higher Fe^2+-chelating activity.

The nature of data set [3]: Superoxide radical scavenging, xanthine/xanthine oxidase/NBT system. Type of data set: biochemical. As to conditions: for decrease of NBT reduction as compared to the controls: 100 µM (highest tested concentration); for absorbance ratio (NBT reduction, % of control): 1, 10, 50 and 100 µM; for increase of absorbance ratio as compared to the controls: 100 µM. As to the method: The 1 mL cuvette for the control contained 1 mM xanthine, 20 µL xanthine oxidase (100 IU/L), and 0.04 mM NBT [43, 44]. In the sample compositions, the tested hydrazones at different concentrations were added. All measurement compositions were incubated at 37 °C, and the absorbance was determined spectrophotometrically at 560 nm via Shimadzu UV-1601 UV-vis spectrophotometer.
The potential capability of the investigated compounds to prevent the superoxide-anion radical-induced NBT reduction was investigated spectrophotometrically by xanthine-oxidase assay. The assay was carried out at the final concentration of the tested compounds, at 1, 10, 50, and 100 µM.

In data set [4] the test system is isolated rat-brain synaptosomes. The data set can be described thus: 6-OHDA-induced neurotoxicity in isolated rat synaptosomes, synaptosomal viability. Type of data set: cell-based. The note with it: 10 µM pre-incubation 30 min, then 150 µM 6-OHDA 1 h; for viability at 10 µM: Rattus norvegicus, read-out: synaptosomal viability (SV) preserved, as compared to 6-OHDA. As for the experimental part:
This neurotoxicity model was based on the metabolism and auto-oxidation of 6-hydroxy dopamine responsible for the reactive oxygen species and quinones generation, ultimately leading to neurotoxicity and neurodegeneration. The experiment was performed by pre-incubation of the synaptosomes with 10 µM of the compounds for 30 min, followed by the addition of 150 µM 6-hydroxy dopamine for induction of neurotoxicity. After 1 h, they were centrifuged twice for 1 min at 15,000 × g. After the second wash, the precipitates were resolved with buffer B and glucose.

A short description of data set [5]: Fe(II)-induced deoxyribose degradation assay. Type of data set: biochemical. As to conditions: 80 µM, 2-deoxyribose 0.5 mM, 0.1 mM FeCl2; for absorbance ratio, % of the controls (deoxyribose degradation): lower = stronger antioxidant. As for the experimental part:
The lipid peroxidation assay and a modification of the deoxyribose-degradation assay were used. Two types of measurement compositions in phosphate buffer (PB–K2HPO4/KH2PO4, pH 7.4) were prepared for both tests: (i) samples, containing the biologically relevant molecules (lecithin emulsion or deoxyribose), iron, and the tested hydrazones at the concentrations indicated below the figures; and (ii) controls, in which the tested hydrazones were omitted. The data for the sample activity were presented as a percentage of the control measurement.
The deoxyribose (0.5 mM) damage was induced by adding FeCl2 (0.1 mM). The measurement compositions were incubated at 37 °C for 30 min. The next step comprised adding 0.5 mL of 2.8% trichloroacetic acid and 0.5 mL of thiobarbituric acid. Then, the samples were heated in boiling water for 20 min, and their absorbance was estimated at 532 nm (characteristic band for the generated chromophore) via Shimadzu UV-1601 UV-vis spectrophotometer.

The nature of data set [6]: MTT cell viability assay (cytotoxicity), bEnd3. Type of data set: cell-based, mouse. The note with it: mouse, bEnd3 brain endothelial cells, 1–500 µM. As for the experimental part:
Mouse-brain endothelial cell line bEnd3 [36] (CRL-2299) was purchased from the American Type Culture Collection (ATCC, Manassas, VA, USA). The cells were cultured in DMEM (Dulbeco’s modified essential medium) (cat. no. 30-2002, ATCC, Manassas, VA, USA), supplemented with 10% heat-inactivated FBS (cat. no. F7524, Sigma-Aldrich Co. LLC, St. Louis, MO, USA), 1 mM L-glutamine (cat. no. G7513, Sigma-Aldrich Co. LLC, St. Louis, MO, USA) and 1× Antibiotic-Antimycotic solution (penicillin: streptomycin: amphotericin B (100 U/mL: 0.10 mg/mL: 0.25 µg/mL) (cat. no. A5955, Sigma-Aldrich Co. LLC, St. Louis, MO, USA) at 37 °C in a humidified atmosphere containing 5% CO2. The cells were passaged in 75 cm^2 flasks every 3–5 days via trypsinization (StableCell Trypsin solution, cat. no. T2610, Sigma-Aldrich Co. LLC, St. Louis, MO, USA).
as §1, §2

“Also recorded” adds a separate entry of the source.

What is called IC50 is the concentration that inhibits the measured activity by half. By viability is commonly meant a read-out of living cells in per cent, often relative to untreated cells. By melting point is commonly meant the temperature, or range, at which the solid turns liquid. Consider `COc1cc(C=NNC(=O)CCc2c[nH]c3ccccc23)ccc1O` [Compound 3d, N′-(4-Hydroxy-3-methoxybenzylidene)-3-(1H-indol-3-yl)propanehydrazide], for which the melting point is 157 to 158 °C. Also, the IC50 at 24 h in data set [1] is 156 µM. Further, the “absorbance at 515 nm compared to the controls (Fe(II) chelation)” value in data set [2] was “statistically identical absorbance values at 515 nm, as compared to the controls”. For the same molecule, the “decrease of NBT reduction as compared to the controls” value (shortened to “decrease of NBT reduction”) in data set [3] is on record as “less than 15%”. The viability at 10 µM in data set [4] worked out at 33%. Also, in data set [5], the “pro-oxidant effect above the controls (deoxyribose degradation)” value is “about 10%”. In data set [6], the half-inhibitory concentration (IC50) at 24 h came to 367 µM.
In turn, `COc1cc(C=NNC(=O)CCc2c[nH]c3ccccc23)cc(OC)c1O` [Compound 3f, N′-(4-Hydroxy-3,5-dimethoxybenzylidene)-3-(1H-indol-3-yl)propanehydrazide] displayed a melting point of 134 to 135 °C. The IC50 at 24 h in data set [1] was over 500 µM. Moreover, in data set [2], the “absorbance at 515 nm compared to the controls (Fe(II) chelation)” value is recorded as “statistically identical absorbance values at 515 nm, as compared to the controls”. In addition, the “decrease of NBT reduction” value in data set [3] is reported as “less than 15%”. Further, the viability at 10 µM in data set [4] came to 44%. In addition, the concentration for half-maximal inhibition (IC50) at 24 h in data set [6] is over 500 µM.
For `COc1ccc2[nH]c(C(=O)NN=Cc3cccc(O)c3O)cc2c1` [Compound 5a, N′-(2,3-Dihydroxybenzylidene)-5-methoxy-1H-indole-2-carbohydrazide], the melting point fell in the range of 262 to 263 °C. Besides, the concentration for half-maximal inhibition (IC50) at 24 h in data set [1] was 79.3 µM. In addition, the “absorbance at 515 nm compared to the controls (Fe(II) chelation)” value in data set [2] is listed as “identical absorbance values, as compared to the controls”. Moreover, in data set [3], the “decrease of NBT reduction” value was “less than 15%”. Further, the viability at 10 µM in data set [4] was 56%. In data set [5], the “absorbance ratio, % of the controls (deoxyribose degradation)” value (shortened to “absorbance ratio, % of the controls”) is on record as “about 50%”. Besides, the half-inhibitory concentration (IC50) at 24 h in data set [6] worked out at 197 µM.
As for `COc1ccc2[nH]c(C(=O)NN=Cc3ccc(O)c(O)c3)cc2c1` [Compound 5b, N′-(3,4-Dihydroxybenzylidene)-5-methoxy-1H-indole-2-carbohydrazide], the melting point fell in the range of 252 to 253 °C. Further, the IC50 at 24 h in data set [1] was 111 µM. Further, in data set [2], the “absorbance at 515 nm compared to the controls (Fe(II) chelation)” value was “statistically identical absorbance values at 515 nm, as compared to the controls”. Also, in data set [3] (10 µM), the “NBT reduction decreased to” value came to 20%. In data set [4], the viability at 10 µM was found to be 44%. The IC50 at 24 h in data set [6] is 158 µM.
Consider `COc1ccc2[nH]c(C(=O)NN=Cc3ccc(O)cc3O)cc2c1` [Compound 5c, N′-(2,4-Dihydroxybenzylidene)-5-methoxy-1H-indole-2-carbohydrazide], for which the IC50 at 24 h was 73.9 µM in data set [1] and over 500 µM in data set [6]. The “absorbance at 515 nm compared to the controls (Fe(II) chelation)” value in data set [2] is on record as “statistically significant changes”. Also, the “absorbance ratio (NBT reduction, % of control)” value in data set [3] is given as “did not influence the estimated absorbance ratio at any of the tested concentrations”. In addition, the viability at 10 µM in data set [4] was 44%. For the same molecule, the “absorbance ratio, % of the controls” value in data set [5] is on record as “did not induce a modulating effect”.
As for `COc1ccc(C=NNC(=O)c2cc3cc(OC)ccc3[nH]2)c(O)c1` [Compound 5e, N′-(2-Hydroxy-4-methoxybenzylidene)-5-methoxy-1H-indole-2-carbohydrazide], the half-inhibitory concentration (IC50) at 24 h in data set [1] is 200 µM; in data set [6] it was 12.1 µM. Also, the “absorbance at 515 nm compared to the controls (Fe(II) chelation)” value in data set [2] was “statistically significant changes; also recorded: much higher absorbance values than the controls”. In addition, in data set [3], the “increase of absorbance ratio as compared to the controls” value worked out at 40%. The viability at 10 µM in data set [4] came to 56%. The “absorbance ratio, % of the controls” value in data set [5] is listed as “did not induce a modulating effect”.
As to `COc1ccc2[nH]c(C(=O)NN=Cc3cc(OC)c(O)c(OC)c3)cc2c1` [Compound 5f, N′-(4-Hydroxy-3,5-dimethoxybenzylidene)-5-methoxy-1H-indole-2-carbohydrazide], the melting point lay within 239 to 240 °C. Further, the IC50 at 24 h in data set [1] turned out to be 287 µM. Moreover, the “absorbance at 515 nm compared to the controls (Fe(II) chelation)” value in data set [2] is reported as “statistically identical absorbance values at 515 nm, as compared to the controls”. The “increase of absorbance ratio as compared to the controls” value in data set [3] is 8%. Further, the viability at 10 µM in data set [4] was 56%. Further, the half-inhibitory concentration (IC50) at 24 h in data set [6] is 184 µM.
With `COc1ccc2[nH]cc(CCNC(C)=O)c2c1` [Melatonin], the IC50 at 24 h in data set [1] and in data set [6] was over 500 µM throughout. Moreover, the viability at 10 µM in data set [4] came out at 78%.
Consider “N′-(4-Hydroxy-2-methoxybenzylidene)-3-(1H-indol-3-yl)propanehydrazide [Compound 3e]”, for which the “absorbance at 515 nm compared to the controls (Fe(II) chelation)” value in data set [2] is recorded as “statistically significant changes; also recorded: much higher absorbance values than the controls”. Also, the “absorbance ratio (NBT reduction, % of control)” value in data set [3] was “approximately 135%”. Besides, in data set [4], the “synaptosomal viability (SV) preserved, as compared to 6-OHDA” value was 33%. Further, the “pro-oxidant effect above the controls (deoxyribose degradation)” value in data set [5] is “about 10%”.
